Reference: PMC12649549, “Sequence Permutation Generated Lysine and Tryptophan-Rich Antimicrobial Peptides with Enhanced Therapeutic Index” (Antibiotics, 2025)
Like-named read-outs stand apart in the source and are kept apart here.

How the values were obtained:
[1] = tested on: A. baumannii 14B0097 (Acinetobacter sp., BCRC number 14B0097)
Summary of the method: (§1)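 MICs came from CLSI broth microdilution, with 5 × 10^5 CFU/mL bacteria exposed to peptide at final 0.78–50 µg/mL. Media were MH broth or LYM broth (pH 7.4), the latter also adjusted for salt (NaCl 50–300 mM, MgCl2 0.5–2.5 mM) or acidity (pH 4.5–6.5); triplicate independent experiments.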

[2] = tested on: Pseudomonas aeruginosa Migula (ATCC 27853)
Summary of the method: as §1

S. aureus ATCC 33593 = tested on: S. aureus ATCC 33593
Summary of the method: as §1

S. aureus ATCC 33592 = tested on: S. aureus ATCC 33592
Procedure: The antibacterial and salt-resistant activity of the peptides was tested using Escherichia coli (ATCC 25922), Pseudomonas aeruginosa Migula (ATCC 27853), Acinetobacter sp. (BCRC number 14B0091, BCRC number 14B0097, and BCRC number 14B0100), and Staphylococcus aureus sp. strains (ATCC 25923, ATCC 33591, ATCC 33592, ATCC 33593, and ATCC 6538). All bacteria were obtained from the Food Industry Research and Development Institute (Hsinchu, Taiwan) and cultured in sterilized Müller-Hinton (MH) broth at 37 °C and 200 rpm for 8 h. The inoculum concentrations were determined by measuring the optical density at 600 nm (OD 600 = 1, approximately 10^8 CFU/mL) using an Ultrospec 2100 pro UV-Visible spectrophotometer (Biochrom Ltd., Cambridge, UK) after 8 h of culture.
The antibacterial activities of the peptides in Müller-Hinton (MH) broth and modified LYM broth were determined using the standard broth microdilution method as per Clinical and Laboratory Standards Institute (CLSI) guidelines. The LYM broth was prepared with specific components and adjusted to different conditions, including varying concentrations of NaCl and MgCl2, and different pH levels. To prepare the LYM broth, 5.4 mM KCl, 5.6 mM Na2HPO4, 0.5 mM MgSO4, and 1.0 mM sodium citrate were added. Additionally, 0.4 mg of ZnCl2, 2.0 mg of FeCl3·6H2O, 0.1 mg of CuSO4·5H2O, 0.1 mg of MnSO4·H2O, 0.1 mg of Na2B4O7∙10H2O, 700 mg of amino acid mixtures without tryptophan (Takara Bio Inc., San Jose, CA, USA), and 20 mg of L-tryptophan were added per liter of medium. The pH was adjusted to 7.4, and a vitamin mixture (100X, Sigma) and glucose concentration of 2% were added. […] Bacterial strains were incubated in MH broth overnight, regrown, and diluted to a final concentration of 5 × 10^5 CFU/mL. Peptides were added to each well at final concentrations of 50, 25, 12.5, 6.25, 3.13, 1.56, and 0.78 µg/mL, and 99 µL of diluted microbes was loaded into each well of a polypropylene 96-well plate. […] The Morpheus HeatMap software (https://software.broadinstitute.org/morpheus/) was used to display MIC values on a color scale. All experiments were independently repeated three times.

Gram-positive bacteria = test: Geometric mean MIC and therapeutic index, Gram-positive bacteria; assay type: cell-based; settings: for Therapeutic Index (TI) G+: HC10/GM
Procedure: In this study, we aimed to investigate the potential of W5K series peptides for therapeutic use. To evaluate their efficacy for antibacterial therapy, we used the Therapeutic Index (TI) as a measure of their cell selectivity. The TI was calculated as the ratio of the concentration causing 10% hemolysis of human red blood cells (HC10) to the geometric mean minimum inhibitory concentration (GM) of the peptides against both Gram-negative and Gram-positive bacteria. This parameter was used to quantitatively assess the balance between antibacterial potency and cytotoxicity among the W5K derivatives.
The antibacterial activities of the peptides in Müller-Hinton (MH) broth and modified LYM broth were determined using the standard broth microdilution method as per Clinical and Laboratory Standards Institute (CLSI) guidelines. The LYM broth was prepared with specific components and adjusted to different conditions, including varying concentrations of NaCl and MgCl2, and different pH levels. To prepare the LYM broth, 5.4 mM KCl, 5.6 mM Na2HPO4, 0.5 mM MgSO4, and 1.0 mM sodium citrate were added. Additionally, 0.4 mg of ZnCl2, 2.0 mg of FeCl3·6H2O, 0.1 mg of CuSO4·5H2O, 0.1 mg of MnSO4·H2O, 0.1 mg of Na2B4O7∙10H2O, 700 mg of amino acid mixtures without tryptophan (Takara Bio Inc., San Jose, CA, USA), and 20 mg of L-tryptophan were added per liter of medium. The pH was adjusted to 7.4, and a vitamin mixture (100X, Sigma) and glucose concentration of 2% were added. For different conditions of LYM broth, NaCl concentrations of 300, 200, 150, and 50 mM, MgCl2 concentrations of 2.5, 1.5, and 0.5 mM, and pH levels of 6.5, 5.5, and 4.5 were adjusted. Bacterial strains were incubated in MH broth overnight, regrown, and diluted to a final concentration of 5 × 10^5 CFU/mL. Peptides were added to each well at final concentrations of 50, 25, 12.5, 6.25, 3.13, 1.56, and 0.78 µg/mL, and 99 µL of diluted microbes was loaded into each well of a polypropylene 96-well plate. […] The Morpheus HeatMap software (https://software.broadinstitute.org/morpheus/) was used to display MIC values on a color scale. All experiments were independently repeated three times.

[3] = LYM broth, 0 mM NaCl, 16 h, 37 °C
[4] = LYM broth, 50 mM NaCl, 16 h, 37 °C
[5] = LYM broth, 100 mM NaCl, 16 h, 37 °C
[6] = LYM broth, 200 mM (NaCl), 16 h, 37 °C
[7] = LYM broth, 300 mM (NaCl), 16 h, 37 °C
[8] = MH broth, 5 × 10^5 CFU/mL, 16 h, 37 °C, repeated three times

Ac-AKKKKWRKWLKWL-NH2 [Peptide W5K10] showed an MIC [1, 3] of 1.56 µg/mL, an MIC ([1]; LYM broth, 0.5 mM MgCl2) of 1.56 µg/mL and an MIC ([1]; LYM broth, 1.5 mM MgCl2) of 1.56 µg/mL. For the same substance, the MIC ([1]; LYM broth, 2.5 mM MgCl2) was 3.13 µg/mL, the MIC [1, 4] was 1.56 µg/mL and the MIC [1, 5] was 1.56 µg/mL. For the same substance, the MIC [1, 6] was 1.56 µg/mL, the MIC [1, 7] was 6.25 µg/mL and the MIC ([1]; LYM broth, pH 4.5) was 3.13 µg/mL. For the same substance, the MIC ([1]; LYM broth, pH 5.5) was 1.56 µg/mL, the MIC ([1]; LYM broth, pH 6.5) was 1.56 µg/mL and the MIC [1, 8] was 1.56 µg/mL. The MIC [2, 3] was 3.13 µg/mL, the MIC ([2]; LYM broth, 0.5 mM MgCl2) was 3.13 µg/mL and the MIC ([2]; LYM broth, 1.5 mM MgCl2) was 3.13 µg/mL. The MIC ([2]; LYM broth, 2.5 mM MgCl2) was 6.25 µg/mL, the MIC [2, 4] was 6.25 µg/mL and the MIC [2, 5] was 6.25 µg/mL. For the same substance, the MIC [2, 6] was 12.5 µg/mL, the MIC [2, 7] was 25 µg/mL and the MIC ([2]; LYM broth, pH 4.5) was 3.13 µg/mL. For the same substance, the MIC ([2]; LYM broth, pH 5.5) was 3.13 µg/mL, the MIC ([2]; LYM broth, pH 6.5) was 1.56 µg/mL and the MIC [2, 8] was 6.25 µg/mL. It also gave an MIC (S. aureus ATCC 33593; [3]) of 3.13 µg/mL, an MIC (S. aureus ATCC 33593; LYM broth, 0.5 mM MgCl2) of 3.13 µg/mL and an MIC (S. aureus ATCC 33593; LYM broth, 1.5 mM MgCl2) of 3.13 µg/mL. The MIC (S. aureus ATCC 33593; LYM broth, 2.5 mM MgCl2) was 6.25 µg/mL, the MIC (S. aureus ATCC 33593; [4]) was 6.25 µg/mL and the MIC (S. aureus ATCC 33593; [5]) was 6.25 µg/mL. For the same substance, the MIC (S. aureus ATCC 33593; [6]) was 12.5 µg/mL, the MIC (S. aureus ATCC 33593; [7]) was 25 µg/mL and the MIC (S. aureus ATCC 33593; LYM broth, pH 4.5) was 6.25 µg/mL. It also gave an MIC (S. aureus ATCC 33593; LYM broth, pH 5.5) of 3.13 µg/mL, an MIC (S. aureus ATCC 33593; LYM broth, pH 6.5) of 3.13 µg/mL and an MIC (S. aureus ATCC 33593; [8]) of 12.5 µg/mL. It also gave an MIC (S. aureus ATCC 33592; [3]) of 3.13 µg/mL, an MIC (S. aureus ATCC 33592; LYM broth, 0.5 mM MgCl2) of 3.13 µg/mL and an MIC (S. aureus ATCC 33592; LYM broth, 1.5 mM MgCl2) of 3.13 µg/mL. It also gave an MIC (S. aureus ATCC 33592; LYM broth, 2.5 mM MgCl2) of 3.13 µg/mL, an MIC (S. aureus ATCC 33592; [4]) of 6.25 µg/mL and an MIC (S. aureus ATCC 33592; [5]) of 6.25 µg/mL. For the same substance, the MIC (S. aureus ATCC 33592; [6]) was 12.5 µg/mL, the MIC (S. aureus ATCC 33592; [7]) was 25 µg/mL and the MIC (S. aureus ATCC 33592; LYM broth, pH 4.5) was 3.13 µg/mL. For the same substance, the MIC (S. aureus ATCC 33592; LYM broth, pH 5.5) was 3.13 µg/mL, the MIC (S. aureus ATCC 33592; LYM broth, pH 6.5) was 3.13 µg/mL and the MIC (S. aureus ATCC 33592; [8]) was 12.5 µg/mL. The “GM G+ (geometric mean of the MIC values)” value (Gram-positive bacteria; Gram-positive bacteria, MH broth, MIC >50 µg/mL counted as 100 µg/mL) was 9.5 µg/mL and the “Therapeutic Index (TI) G+” value (Gram-positive bacteria; Gram-positive bacteria) was 11.5.

With Ac-KKKKWRKWLKWLA-NH2 [Peptide W5K11] the MIC [1, 3] was 1.56 µg/mL, the MIC ([1]; LYM broth, 0.5 mM MgCl2) was 1.56 µg/mL and the MIC ([1]; LYM broth, 1.5 mM MgCl2) was 1.56 µg/mL. The MIC ([1]; LYM broth, 2.5 mM MgCl2) was 1.56 µg/mL, the MIC [1, 4] was 1.56 µg/mL and the MIC [1, 5] was 1.56 µg/mL. It also gave an MIC [1, 6] of 1.56 µg/mL, an MIC [1, 7] of 1.56 µg/mL and an MIC ([1]; LYM broth, pH 4.5) of 1.56 µg/mL. For the same substance, the MIC ([1]; LYM broth, pH 5.5) was 1.56 µg/mL, the MIC ([1]; LYM broth, pH 6.5) was 1.56 µg/mL and the MIC [1, 8] was 1.56 µg/mL. For the same substance, the MIC [2, 3] was 1.56 µg/mL, the MIC ([2]; LYM broth, 0.5 mM MgCl2) was 1.56 µg/mL and the MIC ([2]; LYM broth, 1.5 mM MgCl2) was 1.56 µg/mL. It also gave an MIC ([2]; LYM broth, 2.5 mM MgCl2) of 3.13 µg/mL, an MIC [2, 4] of 1.56 µg/mL and an MIC [2, 5] of 1.56 µg/mL. It also gave an MIC [2, 6] of 3.13 µg/mL, an MIC [2, 7] of 6.25 µg/mL and an MIC ([2]; LYM broth, pH 4.5) of 1.56 µg/mL. For the same substance, the MIC ([2]; LYM broth, pH 5.5) was 1.56 µg/mL, the MIC ([2]; LYM broth, pH 6.5) was 1.56 µg/mL and the MIC [2, 8] was 3.13 µg/mL. It also gave an MIC (S. aureus ATCC 33593; [3]) of 3.13 µg/mL, an MIC (S. aureus ATCC 33593; LYM broth, 0.5 mM MgCl2) of 3.13 µg/mL and an MIC (S. aureus ATCC 33593; LYM broth, 1.5 mM MgCl2) of 3.13 µg/mL. The MIC (S. aureus ATCC 33593; LYM broth, 2.5 mM MgCl2) was 3.13 µg/mL, the MIC (S. aureus ATCC 33593; [4]) was 3.13 µg/mL and the MIC (S. aureus ATCC 33593; [5]) was 3.13 µg/mL. The MIC (S. aureus ATCC 33593; [6]) was 3.13 µg/mL, the MIC (S. aureus ATCC 33593; [7]) was 6.25 µg/mL and the MIC (S. aureus ATCC 33593; LYM broth, pH 4.5) was 3.13 µg/mL. The MIC (S. aureus ATCC 33593; LYM broth, pH 5.5) was 1.56 µg/mL, the MIC (S. aureus ATCC 33593; LYM broth, pH 6.5) was 1.56 µg/mL and the MIC (S. aureus ATCC 33593; [8]) was 6.25 µg/mL. The MIC (S. aureus ATCC 33592; [3]) was 3.13 µg/mL, the MIC (S. aureus ATCC 33592; LYM broth, 0.5 mM MgCl2) was 3.13 µg/mL and the MIC (S. aureus ATCC 33592; LYM broth, 1.5 mM MgCl2) was 3.13 µg/mL. For the same substance, the MIC (S. aureus ATCC 33592; LYM broth, 2.5 mM MgCl2) was 3.13 µg/mL, the MIC (S. aureus ATCC 33592; [4]) was 3.13 µg/mL and the MIC (S. aureus ATCC 33592; [5]) was 3.13 µg/mL. It also gave an MIC (S. aureus ATCC 33592; [6]) of 3.13 µg/mL, an MIC (S. aureus ATCC 33592; [7]) of 6.25 µg/mL and an MIC (S. aureus ATCC 33592; LYM broth, pH 4.5) of 3.13 µg/mL. The MIC (S. aureus ATCC 33592; LYM broth, pH 5.5) was 3.13 µg/mL, the MIC (S. aureus ATCC 33592; LYM broth, pH 6.5) was 1.56 µg/mL and the MIC (S. aureus ATCC 33592; [8]) was 6.25 µg/mL. For the same substance, the “GM G+ (geometric mean of the MIC values)” value (Gram-positive bacteria) was 5.4 µg/mL and the “Therapeutic Index (TI) G+” value (Gram-positive bacteria; Gram-positive bacteria) was 13.0.
